The assay addresses T1, human Nav1.8 ion channel stably expressed by CHO cells (Homo sapiens, UniProt Q9Y5Y9).
T1 construct: expressed in transfected cells
Put plainly: Blocking activity on sodium ion channel 1.8 (Nav1.8), manual whole-cell patch clamp. The format is cell-based. Particulars: Nav1.8 peak sodium current; for inhibition at 0.01 µM: 10 nM compound, read-out: Inhibition rate (%) @ 10 nM; for inhibition at 0.1 µM: 100 nM compound, read-out: Inhibition rate (%) @ 100 nM. Here is the method:
Test Example A: Blocking activity of the compound of the present invention on sodium ion channel 1.8 (Nav1.8)
Experimental objective: to determine the rate of inhibition of the compound on the human Nav1.8 ion channel stably expressed by CHO cells
The compound was dissolved using DMSO to prepare a stock solution. The stock solution was diluted with an extracellular fluid (140 mM NaCl, 3.5 mM KCl, 1 mM MgCl2, 2 mM CaCl2), 10 mM D-glucose, 10 mM HEPES, 1.25 mM NaH2PO4 2H2O, pH=7.4 (NaOH)) to particular concentrations to be used in manual patch clamp testing.
A capillary glass tube was stretched to form a recording electrode using a microelectrode puller. A microelectrode manipulator was operated under an inverted microscope to contact the recording electrode to the cells, and negative suction pressure was applied to form a GQ seal. Once the GQ seal was formed, rapid capacitance compensation was performed, and then the negative pressure was continued to break the cell membrane, forming a whole cell recording mode. Slow capacitance was compensated for, and the film capacitance and series resistance were recorded. No leakage compensation was applied. Once the Nav1.8 current recorded in the whole cell was stabilized, administration of the compound was started. The compound was allowed to act at the first concentration for 5 min (or until the electric current stabilized), and then the second concentration was tested. For each test compound, two concentrations were tested.
The voltage stimulation protocol for whole-cell patch clamp recording of Nav1.8 sodium current was as follows: once the whole cell seal was formed, the cellular voltage was clamped at −120 mV for 30 ms. The clamping voltage was depolarized to 0 mV for 50 ms, and then the voltage was restored to −50 mV (for the specific voltage, reference was made to the half inactivation voltage in IV testing) for 8 s. […] Data acquisition was repeated every 20 s. The effect of the compound on the peak value of the sodium current was observed. The experimental data was collected by an EPC-10 amplifier (HEKA) and was stored in PatchMaster (HEKA) software.

T1 sequence (Q9Y5Y9 whole entry): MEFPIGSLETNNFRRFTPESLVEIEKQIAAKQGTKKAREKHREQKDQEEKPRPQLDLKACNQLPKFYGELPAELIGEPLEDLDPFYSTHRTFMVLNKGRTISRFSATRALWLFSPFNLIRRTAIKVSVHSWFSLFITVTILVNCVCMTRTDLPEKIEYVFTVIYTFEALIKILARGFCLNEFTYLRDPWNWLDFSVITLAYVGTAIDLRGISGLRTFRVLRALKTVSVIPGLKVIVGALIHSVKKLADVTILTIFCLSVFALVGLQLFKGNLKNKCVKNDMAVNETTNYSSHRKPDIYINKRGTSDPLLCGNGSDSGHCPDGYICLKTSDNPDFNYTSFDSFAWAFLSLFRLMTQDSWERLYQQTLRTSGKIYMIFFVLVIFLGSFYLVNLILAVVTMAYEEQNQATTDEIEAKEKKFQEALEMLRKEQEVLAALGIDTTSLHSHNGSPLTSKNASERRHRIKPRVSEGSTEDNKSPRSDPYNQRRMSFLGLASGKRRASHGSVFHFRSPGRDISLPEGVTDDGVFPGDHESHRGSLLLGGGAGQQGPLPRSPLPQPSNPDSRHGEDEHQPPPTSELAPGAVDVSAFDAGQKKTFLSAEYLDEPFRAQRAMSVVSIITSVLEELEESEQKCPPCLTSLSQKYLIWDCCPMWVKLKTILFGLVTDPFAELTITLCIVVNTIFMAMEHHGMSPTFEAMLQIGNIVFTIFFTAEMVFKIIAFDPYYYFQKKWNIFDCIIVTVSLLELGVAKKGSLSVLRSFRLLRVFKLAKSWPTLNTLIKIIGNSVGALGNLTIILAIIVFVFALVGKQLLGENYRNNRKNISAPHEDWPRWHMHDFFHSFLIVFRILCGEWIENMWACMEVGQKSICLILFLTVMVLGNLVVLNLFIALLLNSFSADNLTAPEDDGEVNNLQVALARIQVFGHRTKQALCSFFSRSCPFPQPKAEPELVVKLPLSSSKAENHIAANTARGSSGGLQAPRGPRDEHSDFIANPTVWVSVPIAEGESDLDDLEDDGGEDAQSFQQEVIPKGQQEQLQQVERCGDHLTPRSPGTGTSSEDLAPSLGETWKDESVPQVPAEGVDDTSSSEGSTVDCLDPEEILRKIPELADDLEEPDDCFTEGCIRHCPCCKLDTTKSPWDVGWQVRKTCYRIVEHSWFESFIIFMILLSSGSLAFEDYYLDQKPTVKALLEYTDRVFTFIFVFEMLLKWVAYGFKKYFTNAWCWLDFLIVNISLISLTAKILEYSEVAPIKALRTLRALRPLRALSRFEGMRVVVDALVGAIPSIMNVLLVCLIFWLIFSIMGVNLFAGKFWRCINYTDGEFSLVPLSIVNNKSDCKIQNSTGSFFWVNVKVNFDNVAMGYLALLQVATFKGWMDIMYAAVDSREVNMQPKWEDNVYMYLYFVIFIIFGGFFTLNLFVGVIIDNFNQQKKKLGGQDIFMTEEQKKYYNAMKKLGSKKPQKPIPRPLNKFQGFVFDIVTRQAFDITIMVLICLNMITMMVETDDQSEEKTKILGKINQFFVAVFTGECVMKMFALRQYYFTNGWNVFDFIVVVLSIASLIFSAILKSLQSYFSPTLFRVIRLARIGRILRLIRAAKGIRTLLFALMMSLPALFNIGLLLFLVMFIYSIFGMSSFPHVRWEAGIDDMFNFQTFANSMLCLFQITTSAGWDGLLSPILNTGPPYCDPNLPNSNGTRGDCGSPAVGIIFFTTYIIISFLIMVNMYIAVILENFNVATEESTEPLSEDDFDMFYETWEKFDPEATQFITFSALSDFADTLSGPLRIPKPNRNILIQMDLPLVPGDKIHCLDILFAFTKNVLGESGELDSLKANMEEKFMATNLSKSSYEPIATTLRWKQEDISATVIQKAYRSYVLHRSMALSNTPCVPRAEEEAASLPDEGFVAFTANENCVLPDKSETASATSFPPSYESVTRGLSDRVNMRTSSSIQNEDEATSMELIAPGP

For the compound `CNCCNS(=O)(=O)c1cc(NC(=O)c2cc(Cl)c(C(F)(F)F)cc2Oc2ccc(F)cc2C)ccn1` [Compound 1, 5-chloro-2-(4-fluoro-2-methylphenoxy)-N-(2-(N-(2-(methylamino)ethyl)sulfamoyl)pyridin-4-yl)-4-(trifluoromethyl)benzamide], the inhibition at 0.01 µM is 59.8% and the inhibition at 0.1 µM came out at 91.3%.
The matching figures for `Cc1cc(F)ccc1Oc1cc(C(F)(F)F)c(Cl)cc1C(=O)Nc1ccnc(S(=O)(=O)N[C@@H]2CCNC2)c1` [Compound 2, (R)-5-chloro-2-(4-fluoro-2-methylphenoxy)-N-(2-(N-(pyrrolidin-3-yl)sulfamoyl)pyridin-4-yl)-4-(trifluoromethyl)benzamide]: 84.5% and 100%.
Regarding `Cc1cc(F)ccc1Oc1cc(C(F)(F)F)c(Cl)cc1C(=O)Nc1ccnc(S(=O)(=O)N[C@H]2CCNC2)c1` [Compound 3, (S)-5-chloro-2-(4-fluoro-2-methylphenoxy)-N-(2-(N-(pyrrolidin-3-yl)sulfamoyl)pyridin-4-yl)-4-(trifluoromethyl)benzamide], the inhibition at 0.01 µM turned out to be 92% and the inhibition at 0.1 µM amounted to 98.4%.
On to `Cc1cc(F)ccc1Oc1cc(C(F)(F)F)c(Cl)cc1C(=O)Nc1ccnc(S(=O)(=O)NC2CCNCC2)c1` [Compound 4, 5-chloro-2-(4-fluoro-2-methylphenoxy)-N-(2-(N-(piperidin-4-yl)sulfamoyl)pyridin-4-yl)-4-(trifluoromethyl)benzamide], for which the inhibition at 0.01 µM came to 84.9% and the inhibition at 0.1 µM amounted to 96.1%.
On to `Cc1cc(F)ccc1Oc1cc(C(F)(F)F)c(Cl)cc1C(=O)Nc1ccnc(S(=O)(=O)NCC2CCNCC2)c1` [Compound 5, 5-chloro-2-(4-fluoro-2-methylphenoxy)-N-(2-(N-(piperidin-4-ylmethyl)sulfamoyl)pyridin-4-yl)-4-(trifluoromethyl)benzamide], for which the inhibition at 0.01 µM is 78.5% and the inhibition at 0.1 µM is 96.8%.
For `Cc1cc(F)ccc1Oc1cc(C(F)(F)F)c(Cl)cc1C(=O)Nc1ccnc(S(=O)(=O)NC[C@@H]2CCNC2)c1` [Compound 6, (R)-5-chloro-2-(4-fluoro-2-methylphenoxy)-N-(2-(N-(pyrrolidin-3-ylmethyl)sulfamoyl)pyridin-4-yl)-4-(trifluoromethyl)benzamide] the same measures were 71.3% and 98.1%.
As for `Cc1cc(F)ccc1Oc1cc(C(F)(F)F)c(Cl)cc1C(=O)Nc1ccnc(S(=O)(=O)NC[C@H]2CCNC2)c1` [Compound 7, (S)-5-chloro-2-(4-fluoro-2-methylphenoxy)-N-(2-(N-(pyrrolidin-3-ylmethyl)sulfamoyl)pyridin-4-yl)-4-(trifluoromethyl)benzamide], the inhibition at 0.01 µM is 91.5% and the inhibition at 0.1 µM came out at 97.1%.
Turning to `CCN1CC[C@H](NS(=O)(=O)c2cc(NC(=O)c3cc(Cl)c(C(F)(F)F)cc3Oc3ccc(F)cc3C)ccn2)C1` [Compound 8], the inhibition at 0.01 µM was 68.6% and the inhibition at 0.1 µM turned out to be 93%.
For `CCCN1CC[C@H](NS(=O)(=O)c2cc(NC(=O)c3cc(Cl)c(C(F)(F)F)cc3Oc3ccc(F)cc3C)ccn2)C1` [Compound 9, (S)-5-chloro-2-(4-fluoro-2-methylphenoxy)-N-(2-(N-(1-propylpyrrolidin-3-yl)sulfonamido)pyridin-4-yl)-4-(trifluoromethyl)benzamide], the inhibition at 0.01 µM was 60.1% and the inhibition at 0.1 µM amounted to 95.2%.
As to `Cc1cc(F)ccc1Oc1cc(C(F)(F)F)c(Cl)cc1C(=O)Nc1ccnc(S(=O)(=O)N[C@H]2CCN(CCF)C2)c1` [Compound 10, (S)-5-chloro-2-(4-fluoro-2-methylphenoxy)-N-(2-(N-(1-(2-fluoroethyl)pyrrolidin-3-yl)sulfamoyl)pyridin-4-yl)-4-(trifluoromethyl)benzamide], the inhibition at 0.01 µM was found to be 46.2% and the inhibition at 0.1 µM amounted to 83.4%.
Take `CCN1CC[C@@H](NS(=O)(=O)c2cc(NC(=O)c3cc(Cl)c(C(F)(F)F)cc3Oc3ccc(F)cc3C)ccn2)C1` [Compound 11]: the inhibition at 0.01 µM stood at 80.5% and the inhibition at 0.1 µM came to 97.8%.
Take `CCCN1CC[C@@H](NS(=O)(=O)c2cc(NC(=O)c3cc(Cl)c(C(F)(F)F)cc3Oc3ccc(F)cc3C)ccn2)C1` [Compound 12, (R)-5-chloro-2-(4-fluoro-2-methylphenoxy)-N-(2-(N-(1-propylpyrrolidin-3-yl)sulfamoyl)pyridin-4-yl)-4-(trifluoromethyl)benzamide]: the inhibition at 0.01 µM came to 71.5% and the inhibition at 0.1 µM turned out to be 97.9%.
Consider `[2H]C([2H])([2H])Oc1cc(OC(F)(F)F)ccc1Oc1cc(C(F)(F)F)c(Cl)cc1C(=O)Nc1ccnc(S(C)(=N)=O)c1` (stereo not drawn) [Compound 15, 5-chloro-2-(2-(methoxy-d3)-4-(trifluoromethoxy)phenoxy)-N-(2-(S-methyliminosulfonyl)pyridin-4-yl)-4-(trifluoromethyl)benzamide], for which the inhibition at 0.01 µM is 86.3% and the inhibition at 0.1 µM came to 99.3%.
Regarding `CS(=N)(=O)c1cc(NC(=O)c2cc(Cl)c(C(F)(F)F)cc2N2CCCC(F)(F)CC2)ccn1` (stereo not drawn) [Compound 17, 5-chloro-2-(4,4-difluoroazepan-1-yl)-N-(2-(S-methyliminosulfonyl)pyridin-4-yl)-4-(trifluoromethyl)benzamide], the inhibition at 0.01 µM came to 71.9% and the inhibition at 0.1 µM was 96.5%.
The matching figures for `Cc1cc(F)ccc1Oc1cc(C(F)(F)F)c(Cl)cc1C(=O)Nc1cnnc(S(C)(=N)=O)c1` (stereo not drawn) [Compound 20, 5-chloro-2-(4-fluoro-2-methylphenoxy)-N-(6-(S-methyliminosulfonyl) 76 yridazine-4-yl)-4-(trifluoromethyl)benzamide]: 46.8% and 86.5%.
Consider `[2H]C([2H])([2H])Oc1cc(F)ccc1Oc1cc(C(F)(F)F)c(Cl)cc1C(=O)Nc1ccc(F)c(S(C)(=N)=O)c1` (stereo not drawn) [Compound 24, 5-chloro-2-(4-fluoro-2-(methoxy-d3)phenoxy)-N-(4-fluoro-3-(S-methyliminosulfonyl)phenyl)-4-(trifluoromethyl)benzamide], for which the inhibition at 0.01 µM amounted to 83.9% and the inhibition at 0.1 µM was found to be 99%.
With `[2H]C([2H])([2H])Oc1cc(OC(F)(F)F)ccc1Oc1cc(C(F)(F)F)c(Cl)cc1C(=O)Nc1ccc(F)c(S(C)(=N)=O)c1` (stereo not drawn) [Compound 25, 5-chloro-N-(4-fluoro-3-(S-methyliminosulfonyl)phenyl)-2-(2-(methoxy-d3)-4-(trifluoromethoxy)phenoxy)-4-(trifluoromethyl)benzamide], the inhibition at 0.01 µM turned out to be 82% and the inhibition at 0.1 µM is 95.5%.
On to `CS(=N)(=O)c1cc(NC(=O)c2cc(Cl)c(C(F)(F)F)cc2N2CCCC(F)(F)CC2)ccc1F` (stereo not drawn) [Compound 27, 5-chloro-2-(4,4-difluoroazepan-1-yl)-N-(4-fluoro-3-(S-methyliminosulfonyl)phenyl)-4-(trifluoromethyl)benzamide], for which the inhibition at 0.01 µM was determined as 75.1% and the inhibition at 0.1 µM came out at 96%.

As usually defined, the inhibition is how much of the control response was suppressed.

These data come from patent US12521399B2, “Compound as voltage-gated sodium channel inhibitor” (Guangzhou Fermion Technology Co., Ltd., priority 2022, dated 2026).
